Laboratory results reported in US20240409536A1, “COMPOUNDS AND METHODS FOR MODULATING SPLICING” (REMIX THERAPEUTICS INC., priority 2021, published 2024).
pIC50: −log10 of the molar value. Counter-ions that a name gives are not always drawn.

Assays:
MYB mRNA = test: Splicing RT-qPCR assay, MYB canonical (CJ) and alternative (AJ) junction mRNA; format: cell-based; conditions: Homo sapiens, A673 or K562 cells, 24 hours; for pIC50: decrease in canonical junction mRNA; for AC50: increase in alternative junction mRNA
Procedure, shortened: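 A673 (DMEM/10% FBS, plated 24 h before dosing) or K562 (IMDM/10% FBS) cells treated 24 h at 37 °C with 11-point 3-fold dilutions, top final 10 uM, DMSO ≤0.25%. Lysates analysed by one-step RT-qPCR for CJ and AJ isoforms, normalized to GAPDH/GUSB (K562) or PPIA (A673).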

HiBiT-tagged HTT protein = test: HiBiT protein abundance assay, HTT (K562 HiBiT knock-in cells); format: cell-based, human; conditions: 24 hours
Procedure, shortened: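 K562 cells with endogenous HiBiT knock-in tag, 10-point 3-fold dilutions (top 10 μM final, ≤0.25% DMSO), 24 h at 37 °C. Lytic Nano-Glo HiBiT luminescence, normalized to DMSO and unmodified K562 baselines; IC50 is concentration giving 50% protein abundance from four-parameter fit.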

Row | Structure (SMILES) | pIC50 (MYB mRNA) | AC50 (MYB mRNA) | pIC50 (HiBiT-tagged HTT protein)
1 | Cc1cn2cc(NC(=O)c3ccc(C4CCNC5(CC5)C4)c4nccnc34)cc(F)c2n1 (centres unmarked) [Compound 375] | 6.00 to 7.00 | 100 to 1000 nM | 5.00 to 6.00
2 | Cc1cn2nc(NC(=O)c3ccc(N4CCNCC4)c4ccnnc34)cc(C)c2n1 [Compound 100] | 6.00 to 7.00 | 100 to 1000 nM | 6.00 to 7.00
3 | Cc1cn2cc(NC(=O)c3ccc(N4C[C@H](C)NC5(CC5)C4)c4nccnc34)cc(F)c2n1 [Compound 377] | > 7.00 | < 100 nM | 5.00 to 6.00
4 | COc1cnc2c(N3C[C@@H](C)N[C@@H](C)C3)ccc(C(=O)Nc3cc(F)c4nc(C)cn4c3)c2n1 [Compound 205, 8-[(3R,5S)-3,5-dimethylpiperazin-1-yl]-N-{8-fluoro-2-methylimidazo[1,2-a]pyridin-6-yl}-3-methoxyquinoxaline-5-carboxamide; trifluoroacetic acid] | > 7.00 | < 100 nM | 6.00 to 7.00
5 | Cc1cn2cc(NC(=O)c3ccc(N4CCN5CCC[C@H]5C4)c4ccnnc34)cc(F)c2n1 [Compound 154] | 6.00 to 7.00 | 100 to 1000 nM | 5.00 to 6.00
6 | Cc1ccc2c(N3CCNCC3)ccc(C(=O)Nc3cc(F)c4nc(C)cn4c3)c2n1 [Compound 162, N-{8-fluoro-2-methylimidazo[1,2-a]pyridin-6-yl}-2-methyl-5-(piperazin-1-yl)quinoline-8-carboxam-ide, trifluoroacetic acid] | > 7.00 | < 100 nM | 6.00 to 7.00
7 | Cc1cn2cc(NC(=O)c3ccc(N4CCNC5(CCOCC5)C4)c4nccnc34)cc(F)c2n1 [Compound 374] | 6.00 to 7.00 | 100 to 1000 nM | 5.00 to 6.00
8 | Cc1cn2cc(NC(=O)c3ccc(N4CCN[C@H](C)C4)c4ccnnc34)cc(F)c2n1 [Compound 146] | > 7.00 | < 100 nM | 6.00 to 7.00
9 | Cc1nc(NC(=O)c2ccc(N3CCNCC3)c3ccnnc23)cc2cn(C)nc12 [Compound 178, N-{2,7-dimethylpyrazolo[3,4-c]pyridin-5-yl}-5-(piperazin-1-yl)cinnoline-8-carboxamide] | 6.00 to 7.00 | 100 to 1000 nM | 5.00 to 6.00
10 | CCc1cc(NC(=O)c2ccc(N3CCNCC3)c3ccnnc23)nn2cc(C)nc12 [Compound 168, N-{8-ethyl-2-methylimidazo[1,2-b]pyridazin-6-yl}-5-(piperazin-1-yl)cinnoline-8-carboxamide trifluoroacetic acid salt] | 5.00 to 6.00 | 1000 to 10000 nM | < 5.00
11 | Cc1cn2cc(NC(=O)c3ccc(N4CCNCC4)c4cccnc34)cc(F)c2n1 [Compound 165, N-{8-fluoro-2-methylimidazo[1,2-a]pyridin-6-yl}-5-(piperazin-1-yl)quinoline-8-carboxamide] | > 7.00 | < 100 nM | 6.00 to 7.00
12 | CCNC1CCN(c2ccc(C(=O)Nc3cc(F)c4nc(C)cn4c3)c3nccnc23)CC1 [Compound 191, 8-[4-(ethylamino)piperidin-1-yl]-N-{8-fluoro-2-methylimidazo[1,2-a]pyridin-6-yl}quinoxaline-5-carboxamide] | > 7.00 | 100 to 1000 nM | 6.00 to 7.00
13 | CN[C@@H]1CCN(c2ccc(C(=O)Nc3cc(F)c4nc(C)cn4c3)c3nc(OC)cnc23)C1 [Compound 204, (R)—N-{8-fluoro-2-methylimidazo[1,2-a]pyridin-6-yl}-3-methoxy-8-[3-(methylamino)pyrrolidin-1-yl]quinoxaline-5-carboxamide; trifluoroacetic acid] | 5.00 to 6.00 | > 10000 nM | 5.00 to 6.00
14 | Cc1cn2cc(NC(=O)c3ccc(N4C[C@@H](C)N[C@@H](C)C4)c4nccnc34)cc(F)c2n1 [Compound 186, 8-(3,5-dimethylpiperazin-1-yl)-N-{8-fluoro-2-methylimidazo[1,2-a]pyridin-6-yl}quinoxaline-5-carboxamide] | > 7.00 | < 100 nM | 5.00 to 6.00
15 | Cc1ccc2c(N3CCC(N(C)C)CC3)ccc(C(=O)Nc3cc(F)c4nc(C)cn4c3)c2n1 [Compound 215, 5-[4-(dimethylamino)piperidin-1-yl]-N-{8-fluoro-2-methylimidazo[1,2-a]pyridin-6-yl}-2-methylquinoline-8-carboxamide] | 6.00 to 7.00 | 100 to 1000 nM | 5.00 to 6.00
16 | Cc1cn2cc(NC(=O)c3ccc(N4CCN5CCC[C@@H]5C4)c4ccnnc34)cc(F)c2n1 [Compound 153] | > 7.00 | < 100 nM | 5.00 to 6.00
17 | CNCC1CCN(c2ccc(C(=O)Nc3cc(F)c4nc(C)cn4c3)c3nccnc23)CC1 [Compound 192, N-{8-fluoro-2-methylimidazo[1,2-a]pyridin-6-yl}-8-{4-[(methylamino)methyl]piperidin-1-yl}quinoxaline-5-carboxamide trifluoroacetate] | 5.00 to 6.00 | 1000 to 10000 nM | 5.00 to 6.00

Row | Structure (SMILES) | pIC50 (MYB mRNA) | AC50 (MYB mRNA) | pIC50 (HiBiT-tagged HTT protein)
18 | COc1ccc2c(N3CCNCC3)ccc(C(=O)Nc3cc(F)c4nc(C)cn4c3)c2n1 [Compound 169, N-{8-fluoro-2-methylimidazo[1,2-a]pyridin-6-yl}-2-methoxy-5-(piperazin-1-yl)quinoline-8-carboxamide] | > 7.00 | < 100 nM | 6.00 to 7.00
19 | COc1cc2c(N3CCNCC3)ccc(C(=O)Nc3cc(F)c4nc(C)cn4c3)c2nn1 [Compound 183, N-{8-fluoro-2-methylimidazo[1,2-a]pyridin-6-yl}-3-methoxy-5-(piperazin-1-yl)cinnoline-8-carboxamide] | > 7.00 | < 100 nM | 6.00 to 7.00
20 | Cc1cn2cc(NC(=O)c3ccc(N4CCNC5(COC5)C4)c4nccnc34)cc(F)c2n1 [Compound 372] | 5.00 to 6.00 | 1000 to 10000 nM | < 5.00
21 | Cc1cn2cc(NC(=O)c3ccc(N4CCNCC4)c4nnccc34)cc(F)c2n1 [Compound 166, N-(8-fluoro-2-methylimidazo[1,2-a]pyridin-6-yl)-8-(piperazin-1-yl)cinnoline-5-carboxamide 2,2,2-trifluoroacetate] | < 5.00 | > 10000 nM | < 5.00
22 | CC(=O)c1cc(NC(=O)c2ccc(N3CCNCC3)c3ccnnc23)cn2cc(C)nc12 [Compound 163, N-{8-acetyl-2-methylimidazo[1,2-a]pyridin-6-yl}-5-(piperazin-1-yl)cinnoline-8-carboxamide] | 5.00 to 6.00 | 1000 to 10000 nM | < 5.00
23 | Cc1cn2cc(NC(=O)c3ccc(N4C[C@@H](C)N[C@@H](C)C4)c4ccnnc34)nc(C)c2n1 [Compound 172, N-{2,8-dimethylimidazo[1,2-a]pyrazin-6-yl}-5-[(3R,5S)-3,5-dimethylpiperazin-1-yl]cinnoline-8-carboxamide] | 6.00 to 7.00 | < 100 nM | < 5.00
24 | Cc1cnc2c(N3C[C@@H](C)N[C@@H](C)C3)ccc(C(=O)Nc3cc(F)c4nc(C)cn4c3)c2n1 [Compound 216, 8-((3R,5S)-3,5-dimethylpiperazin-1-yl)-N-{8-fluoro-2-methylimidazo[1,2-a]pyridin-6-yl}-3-methylquinoxaline-5-carboxamide] | 6.00 to 7.00 | < 100 nM | 5.00 to 6.00
25 | CNC1CCN(c2ccc(C(=O)Nc3cc(F)c4nc(C)cn4c3)c3nc(OC)cnc23)C1 (centres unmarked) [Compound 202, N-{8-fluoro-2-methylimidazo[1,2-a]pyridin-6-yl}-3-methoxy-8-[3-(methylamino)pyrrolidin-1-yl]quinoxaline-5-carboxamide; bis(trifluoroacetic acid)] |  | 100 to 1000 nM | 5.00 to 6.00
26 | Cc1cn2cc(NC(=O)c3ccc(C4CCN(C)CC4)c4ccnnc34)cc(F)c2n1 [Compound 140] | 6.00 to 7.00 | 100 to 1000 nM | 6.00 to 7.00
27 | Cc1cn2cc(NC(=O)c3ccc(N4CCNC5(CC5)C4)c4nccnc34)cc(F)c2n1 [Compound 218, 8-{4,7-diazaspiro[2.5]octan-7-yl}-N-{8-fluoro-2-methylimidazo[1,2-a]pyridin-6-yl}quinoxaline-5-carboxamide] | > 7.00 | < 100 nM | 5.00 to 6.00
28 | Cc1cn2cc(NC(=O)c3ccc(N4CCNCC4)c4ccnnc34)cc(C(C)O)c2n1 (centres unmarked) [Compound 182, N-[8-(1-hydroxyethyl)-2-methylimidazo[1,2-a]pyridin-6-yl]-5-(piperazin-1-yl)cinnoline-8-carboxamide trifluoroacetate] | < 5.00 | > 10000 nM | < 5.00
29 | COc1cnc2c(C(=O)Nc3cc(F)c4nc(C)cn4c3)ccc(N3C[C@@H](C)N[C@@H](C)C3)c2n1 [Compound 223] | > 7.00 | < 100 nM | 6.00 to 7.00
30 | CC[C@@H]1CN(c2ccc(C(=O)Nc3cc(F)c4nc(C)cn4c3)c3nnccc23)CCN1 [Compound 151] | > 7.00 | 100 to 1000 nM | 5.00 to 6.00
31 | COc1cc(NC(=O)c2ccc(N3CCNCC3)c3ccnnc23)cn2cc(C)nc12 [Compound 176, N-{8-methoxy-2-methylimidazo[1,2-a]pyridin-6-yl}-5-(piperazin-1-yl)cinnoline-8-carboxamide trifluoroacetate] | 6.00 to 7.00 | 100 to 1000 nM | 5.00 to 6.00
32 | Cc1cn2cc(NC(=O)c3ccc(N4CCC(N(C)C)CC4)c4ccnnc34)cc(F)c2n1 [Compound 137] | > 7.00 | < 100 nM | 6.00 to 7.00
33 | Cc1cn2cc(NC(=O)c3ccc(N4CCC(N5CCCC5)C4)c4ccnnc34)cc(F)c2n1 (centres unmarked) [Compound 133] | 5.00 to 6.00 | 100 to 1000 nM | 5.00 to 6.00
34 | COc1ncc2c(N3C[C@@H](C)N[C@@H](C)C3)ccc(C(=O)Nc3cn4cc(C)nc4c(OC)n3)c2n1 [Compound 378] | > 7.00 | < 100 nM | 6.00 to 7.00
